In patent publication US20060110385A1, “Means and methods for diagnosing and treating affective disorders” (Affectis Pharmaceuticals AG, priority 2003, published 2006):

Assays:
[1] = tested on: P2X7R; conditions: cited from earlier work
[2] = target: T1, P2X7R (Homo sapiens, UniProt Q99572); conditions: dose response curve, Y-axis ion current; cited from earlier work
T1 sequence (Q99572 1-595): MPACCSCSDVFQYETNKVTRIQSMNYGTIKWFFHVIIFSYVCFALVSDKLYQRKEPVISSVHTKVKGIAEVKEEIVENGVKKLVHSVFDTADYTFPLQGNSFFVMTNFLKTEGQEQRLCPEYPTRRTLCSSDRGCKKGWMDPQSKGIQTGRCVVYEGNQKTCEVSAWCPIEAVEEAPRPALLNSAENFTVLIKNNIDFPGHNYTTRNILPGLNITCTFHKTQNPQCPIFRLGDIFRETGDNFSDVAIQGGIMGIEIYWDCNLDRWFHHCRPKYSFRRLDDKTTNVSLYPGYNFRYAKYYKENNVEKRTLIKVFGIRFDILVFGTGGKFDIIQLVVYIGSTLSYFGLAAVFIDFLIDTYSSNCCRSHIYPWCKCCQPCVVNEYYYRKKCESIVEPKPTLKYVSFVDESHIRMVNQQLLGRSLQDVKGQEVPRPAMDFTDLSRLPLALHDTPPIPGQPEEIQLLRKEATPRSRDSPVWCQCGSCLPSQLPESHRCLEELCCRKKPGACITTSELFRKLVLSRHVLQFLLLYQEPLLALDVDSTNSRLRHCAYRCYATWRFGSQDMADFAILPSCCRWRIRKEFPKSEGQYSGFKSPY

[3] = target: T2, P2X7R (Rattus norvegicus, UniProt Q64663); conditions: concentrations of 10 to 300 μM; cited from earlier work
T2 sequence (Q64663 1-595): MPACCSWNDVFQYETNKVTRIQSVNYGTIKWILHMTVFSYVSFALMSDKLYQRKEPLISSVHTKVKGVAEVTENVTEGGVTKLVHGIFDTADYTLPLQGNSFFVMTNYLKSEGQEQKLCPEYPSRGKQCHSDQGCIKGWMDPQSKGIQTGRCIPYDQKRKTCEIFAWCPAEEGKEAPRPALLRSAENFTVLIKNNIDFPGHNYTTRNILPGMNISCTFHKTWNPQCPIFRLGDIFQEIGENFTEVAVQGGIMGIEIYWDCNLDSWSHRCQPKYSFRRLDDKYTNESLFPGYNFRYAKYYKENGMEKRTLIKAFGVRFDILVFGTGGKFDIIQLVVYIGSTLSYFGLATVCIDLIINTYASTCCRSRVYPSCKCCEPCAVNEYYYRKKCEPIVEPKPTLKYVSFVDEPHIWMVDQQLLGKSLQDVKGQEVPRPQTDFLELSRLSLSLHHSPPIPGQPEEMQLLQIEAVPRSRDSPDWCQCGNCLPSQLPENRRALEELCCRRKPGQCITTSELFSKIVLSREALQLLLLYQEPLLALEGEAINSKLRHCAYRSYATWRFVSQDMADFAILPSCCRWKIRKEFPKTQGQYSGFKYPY

[4] = tested on: mice; experiment: Porsolt's forced swim test after intrahippocampal siRNA; type: in vivo, mouse; conditions: 0.1 nmol/μl, 1 μl per side, dentate gyrus, 24 hours and 48 hours after infusion
From the text: According to the observed expression pattern of P2X7R in the hippocampus (FIGS. 9, 10, and 11) and the known involvement of the hippocampus in depression, the dentate gyrus (hippocampus) was selected as target region for siRNA application. Male, naive mice were bilaterally implanted with a guide cannulae (23 gauge, length 8 mm) by means of a stereotactic instrument. The coordinates, in relation to bregma, were −2.0 mm posterior, ±1.0 mm lateral, and −1.0 mm ventral. Following a recovery period of 5 days, the mice were divided into three experimental groups: vehicle (veh), control double stranded RNA (control), and P2X7R specific double stranded siRNA (siRNA). Sequences used for P2X7R siRNA are 5′-[…]-3′ and 5′-[…]-3′. Both sequences and were annealed and injected together as a double stranded RNA. On day 6 after surgery, mice were slightly anaesthetized with Isofluran and injections of siRNA were carried out. […]
The effects of P2X7R inhibition on depressive-like behaviour was assessed 24 hours and 48 hours after infusion of siRNA, control or vehicle according to the standard test paradigm, the Porsolt's forced swim test (Porsolt et al., Arch. Int. Pharmacodym. 229 (1977), 327-336; Porsolt, Rev. Neurosci. 11 (2000), 53-58). […] Compared to vehicle application, no influence of control double stranded RNA (5′-[…]-3′) on floating behaviour (passive stress coping) was detected. […]

[5] = tested on: P2X7R; experiment: P2X7R protein expression by immunohistochemistry after siRNA injection; type: in vivo, mouse
From the text: At the end of the experiment, the mice were sacrificed and the brains were examined to confirm the location and efficiency of the siRNA injections. For this purpose the brains were cut into sections and the slides were stained by immunohistochemistry using the above mentioned protocols. Brains from mice injected with the specific double stranded siRNA, with control double stranded RNA and with vehicle were examined in parallel. Under these conditions, the specific siRNA directed against P2X7R injected near the dentate gyrus induced on average an 80% inhibition of P2X7R protein expression as compared to the samples from mice injected with vehicle or with control double stranded RNA. […] This inhibition produced behavioural changes indicating a causative role for P2X7R in affective disorders.

[6] = tested on: DBA/201a mice; experiment: Porsolt's forced swim test after intrahippocampal P2X7R antagonists; type: in vivo, mouse; conditions: 100 nM KN-62 or 10 μM oATP, 1 μl each side, dentate gyrus, 24 hours after injection
From the text: In the present example, the P2X7R antagonists were directly injected into the dentate gyrus region of the hippocampus. Briefly, three months old male mice were bilaterally implanted with guide cannulae (23 gauge, length 8 mm) by means of a stereotactic instrument (David Kopf Instruments). The coordinates, in relation to bregma, were −1.5 mm posterior, ±1.0 mm lateral, and −0.8 mm ventral. Mice were allowed to recover for 10 to 13 days after surgery. Following this recovery period, mice were injected with 1 μl vehicle solution (0.01% DMSO, Sigma), or 100 nM KN-62 (Sigma, prepared in 0.01% DMSO), or 10 μM oATP (Sigma, prepared in PBS) in each side of the brain over a period of 60 seconds. All injections were performed using a 9 mm-31 gauge needle inserted into the guide cannulae and connected via tubing to a 10 μl Hamilton syringe.
The behaviour of individual mice was assessed using the Porsolt's forced swim test 24 hours after injection of vehicle solution, KN-62, or oATP. A pre-exposure of 5 minutes to the test was performed 15-17 minutes after administration of vehicle, KN-62, or oATP. A description of the Porsolt's forced swim test is given in example 9. […] Observed results were verified statistically using one-way MANOVA test.

[7] = target: T1, P2X7R; experiment: Calcium entry (Fluo-4 AM) in HT-22 cells overexpressing human P2X7R; type: cell-based; parameters: expressed in transfected cells; conditions: 20 μM BzATP or 50 μM tenidap
From the text: Yet another method for identifying P2X7R agonists was devised by generating a immortalised mouse cell line that overexpresses the human P2X7R gene under the control of the human cytomegalovirus (CMV) early promoter/enhancer region. The human P2X7R cDNA was inserted into the pcDNA3.1 vector (Invitrogen) and transfected into the mouse hippocampal cell line HT-22 using Lipofectamine (Invitrogen) according to the manufacturer's specifications. One day after transfection, culture medium containing 500 μg/ml G418 was added to the cells. Resistant clones were separately isolated and cultured 14 days after applying the selection medium.
The agonistic activity of a compound was evaluated by measuring calcium entry in the cells that overexpress the human P2X7R. Cells were cultured in 96 well plates and incubated at 37° C. with 5% CO2 DMEM with 10% foetal calf serum (Gibco) until they reached confluence. Cells were then loaded for one hour with 10 μM of Fluo-4 AM (Molecular Probes). Fluo-4 AM is a fluorescent dye that binds to intracellular calcium. […] Agonist activity was detected by measuring an increase in calcium influx which results in increased binding to Fluo-4 AM and increased fluorescence. Changes in fluorescence signal are measured using a Fluostar Optima plate reader (BMG biotech). […] Thus, both compound stimulated the activity of P2X7R which results in an influx of ions into the cells.

[8] = tested on: mice; experiment: Porsolt's forced swim test after long-term paroxetine; type: in vivo, mouse; conditions: paroxetine 10 mg/kg twice per day by gavage, 28 days, male mice
Method: Further validation of role of P2X7R in affective disorders was performed by examining its expression pattern in response to stress and treatment with antidepressant drugs. […] In parallel, a control group of mice was given vehicle solution (i.e. without paroxetine) using the same treatment regiment while a second control group of mice was left undisturbed and stress-free (i.e. untreated) during the same period of the experiments. At the end of the long-term treatment, part of the mice of each experimental group were tested in the dark/light box (test of anxiety behaviour) and in the Porsolt's forced swim test (test of depressive-like behaviour) to confirm the effectiveness of the treatment (FIG. 5). […] The other part of the experimental groups (i.e. mice without test experience) were decapitated, brains rapidly removed and frozen at −80° C. until usage.

## Nc1ncnc2c1ncn2[C@@H]1O[C@H](COP(=O)(O)OP(=O)(O)OP(=O)(O)O)[C@@H](O)[C@H]1O [ATP]
[1]
  levels of ATP required to achieve activation: > 1 mM
[2]
  EC50: 300 µM

## CC(C)NCC(O)COc1cccc2ccccc12 (racemic) [DL-propanolol]
[3]
  opening of the cation channel activity of P2X7R: without affecting the opening of the cation channel activity of P2X7R
  pore-forming activity of P2X7R: inhibit the pore-forming activity of P2X7R

## P2X7R specific siRNA: double stranded siRNA, 5′-GUGGGUCUUGCACAUGAUCTT-3′ annealed with 5′-GAUCAUGUGCAAGACCCACTT-3′ (chemistry not given here)
[4]
  passive (floating) behaviour in the forced swim test: significant increase in passive behaviour
[4]; listed as siRNA targeting P2X7R
  passive (floating) behaviour in the forced swim test: increased
[5]; injected near the dentate gyrus, compared to vehicle or control double stranded RNA
  inhibition of P2X7R protein expression: 80%
[5]; intrahippocampal injection
  local inflammation or infiltration at the hippocampus: did not produce any sign of local inflammation or infiltration

## CC(CCc1ccccc1)NCC(O)c1ccc(O)c(C(N)=O)c1 (stereo not shown) [labetolol]
[3]
  opening of the cation channel activity of P2X7R: without affecting the opening of the cation channel activity of P2X7R
  pore-forming activity of P2X7R: inhibit the pore-forming activity of P2X7R

## CC(C)NC[C@@H](O)COc1cccc2ccccc12 [D-propanolol]
[3]
  opening of the cation channel activity of P2X7R: without affecting the opening of the cation channel activity of P2X7R
  pore-forming activity of P2X7R: inhibit the pore-forming activity of P2X7R

## CN([C@@H](Cc1ccc(OS(=O)(=O)c2cccc3cnccc23)cc1)C(=O)N1CCN(c2ccccc2)CC1)S(=O)(=O)c1cccc2cnccc12 [KN-62, 1-(N,O-bis[5-isoquinolinesulphonyl]-N-methyl-L-tyrosyl)-4-phenylpiperazine]
[6]
  active escape attempts (time, frequency, latency of struggling): no changes
  passive behaviour (time, frequency, latency of floating): no changes

## NC(=O)N1C(=O)/C(=C(\O)c2cccs2)c2cc(Cl)ccc21 [tenidap, 5-chloro-2,3-dihydro-2-oxo-3-(2-thienylcarbonyl)-indole-1-carboxamide]
[7]
  fluorescence intensity (calcium influx, Fluo-4 AM): rapid increase in fluorescence intensity

## Fc1ccc([C@@H]2CCNC[C@H]2COc2ccc3c(c2)OCO3)cc1 [paroxetine]
[8]
  passive stress coping behaviour (floating) in the forced swim test: decreased
